# Experimental data: patent US7872014B2, “Anaplastic lymphoma kinase modulators and methods of use” (Exelixis, Inc., priority 2003, dated 2011)
# pIC50: −log10 of the molar value. Counter-ions that a name gives are not always drawn.
# Target: T1, ALK (baculovirus expressed human ALK kinase domain F1098-K1410) (Homo sapiens, UniProt Q9UM73)
# T1 construct: baculovirus expressed human ALK kinase domain F1098-K1410; made in house
# Experiment: Luciferase-Coupled Chemiluminescent Kinase assay (LCCA), ALK biochemical activity
# Conditions: inhibition of ALK; mean values; 1 μM ATP, 4 μM poly-AEKY, 12 nM ALK, 2 hours ambient temperature
# Outline: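 Luciferase-coupled readout of ATP remaining after reaction of 12 nM ALK kinase domain with 1 μM ATP and 4 μM poly-AEKY, Tris-HCl pH 7.5 buffer with MgCl2 and MnCl2. Incubated 2 h at ambient temperature; inhibition derived from ATP consumption across serial compound dilutions.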
# T1 sequence (Q9UM73 1098-1410): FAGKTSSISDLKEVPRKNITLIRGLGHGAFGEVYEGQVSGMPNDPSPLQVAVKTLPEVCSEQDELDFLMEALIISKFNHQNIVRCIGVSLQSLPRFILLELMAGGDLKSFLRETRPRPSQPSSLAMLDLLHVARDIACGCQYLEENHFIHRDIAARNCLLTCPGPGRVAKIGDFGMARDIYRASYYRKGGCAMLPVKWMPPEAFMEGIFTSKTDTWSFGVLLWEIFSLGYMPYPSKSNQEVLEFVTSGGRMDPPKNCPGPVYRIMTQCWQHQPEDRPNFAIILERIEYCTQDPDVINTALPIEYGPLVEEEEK
row,Compound,pIC50
1,"COc1cc2c(-c3ccc(O)c(Cl)c3)nc3[nH]nc(C)c3c2cc1OCC(F)(F)F [Example 153, 2-chloro-4-{1-methyl-7-(methyloxy)-8-[(2,2,2-trifluoroethyl)oxy]-3H-pyrazolo[3,4-c]isoquinolin-5-yl}phenol]",6.00 to 7.00
2,"COc1cc2c(-c3ccc(O)cc3)nc3[nH]nc(C4CCN(C(=O)OC(C)(C)C)CC4)c3c2cc1OC [Example 67, 1,1-dimethylethyl 4-[5-(4-hydroxyphenyl)-7,8-bis(methyloxy)-3H-pyrazolo[3,4-c]isoquinolin-1-yl]piperidine-1-carboxylate]",6.00 to 7.00
3,"COc1ccc(-c2nc3[nH]nc(C)c3c3cc(OCC4CCN(C)CC4)c(OC)c(F)c23)cc1Cl [Example 173, 5-[3-chloro-4-(methyloxy)phenyl]-6-fluoro-1-methyl-7-(methyloxy)-8-{[(1-methylpiperidin-4-yl)methyl]oxy}-3H-pyrazolo[3,4-c]isoquinoline]",5.70 to 6.00
4,"COc1cc2c(-c3ccc(O)cc3)nc3[nH]ncc3c2cc1OC [Example 29, 4-[7,8-bis(methyloxy)-3H-pyrazolo[3,4-c]isoquinolin-5-yl]phenol]",6.00 to 7.00
5,"COc1c(OCCN(C)C2CCN(C)C2)cc(F)c2c(-c3ccc(O)c(Cl)c3)nc3[nH]nc(C)c3c12 (centres unmarked) [Example 231, 2-chloro-4-[6-fluoro-1-methyl-8-({2-[methyl(1-methylpyrrolidin-3-yl)amino]ethyl}oxy)-9-(methyloxy)-3H-pyrazolo[3,4-c]isoquinolin-5-yl]phenol]",≥ 7.00
6,"COc1cc2c(cc1C)c(-c1ccc(O)c(Br)c1)nc1[nH]nc(C)c12 [Example 102, 2-bromo-4-[1,7-dimethyl-8-(methyloxy)-3H-pyrazolo[3,4-c]isoquinolin-5-yl]phenol]",≥ 7.00
7,"COc1ccc2c(-c3ccc(O)cc3)nc3[nH]nc(C)c3c2c1 [Example 36, 4-[1-methyl-8-(methyloxy)-3H-pyrazolo[3,4-c]isoquinolin-5-yl]phenol]",≥ 7.00
8,"COc1cc2c(c(-c3ccc(O)cc3)nc3[nH]nc(C)c32)c(F)c1OC [Example 93, 4-[6-fluoro-1-methyl-7,8-bis(methyloxy)-3H-pyrazolo[3,4-c]isoquinolin-5-yl]phenol]",≥ 7.00
9,"CCc1cc(-c2nc3[nH]nc(C)c3c3cc(OC)c(OC)cc23)ccc1O [Example 63, 2-ethyl-4-[1-methyl-7,8-bis(methyloxy)-3H-pyrazolo[3,4-c]isoquinolin-5-yl]phenol]",6.00 to 7.00
10,"COCCOc1cc2c(c(-c3ccc(O)cc3F)nc3[nH]nc(C)c32)c(F)c1OC [Example 132, 3-fluoro-4-(6-fluoro-1-methyl-7-(methyloxy)-8-{[2-(methyloxy)ethyl]oxy}-3H-pyrazolo[3,4-c]isoquinolin-5-yl)phenol]",≥ 7.00
11,"COc1ccc2c(-c3ccc(O)cc3)nc3[nH]nc(Cc4ccccc4)c3c2c1 [Example 26, 4-[8-(methyloxy)-1-(phenylmethyl)-3H-pyrazolo[3,4-c]isoquinolin-5-yl]phenol]",6.00 to 7.00
12,"Cc1n[nH]c2nc(-c3ccc(O)c(Cl)c3)c3ccc4c(c3c12)OCCO4 [Example 145, 2-chloro-4-(11-methyl-2,3-dihydro-9H-[1,4]dioxino[2,3-f]pyrazolo[3,4-c]isoquinolin-7-yl)phenol]",≥ 7.00
13,"COc1cc2c(-c3ccc(O)cc3)nc3[nH]nc(Cc4cccc(C)c4)c3c2cc1OC [Example 14, hydrochloride]",6.00 to 7.00
14,"CCOc1cc2c(cc1OC)c(-c1ccc(O)cc1)nc1[nH]nc(C)c12 [Example 58, 4-[8-(ethyloxy)-1-methyl-7-(methyloxy)-3H-pyrazolo[3,4-c]isoquinolin-5-yl]phenol]",6.00 to 7.00
15,"COc1c(OCC2CCN(C)CC2)cc(F)c2c(-c3ccc(O)c(Cl)c3)nc3[nH]nc(C)c3c12 [Example 182, 2-chloro-4-(6-fluoro-1-methyl-9-(methyloxy)-8-{[(1-methylpiperidin-4-yl)methyl]oxy}-3H-pyrazolo[3,4-c]isoquinolin-5-yl)phenol]",≥ 7.00
16,"COCCOc1c(OC)ccc2c(-c3ccc(O)cc3)nc3[nH]nc(C)c3c12 [Example 90, 4-(1-methyl-8-(methyloxy)-9-{[2-(methyloxy)ethyl]oxy}-3H-pyrazolo[3,4-c]isoquinolin-5-yl)phenol]",≥ 7.00
17,"COCCOc1cc2c(cc1OC)c(-c1cc(Br)c(O)cc1F)nc1[nH]nc(C)c12 [Example 135, 2-bromo-5-fluoro-4-(1-methyl-7-(methyloxy)-8-{[2-(methyloxy)ethyl]oxy}-3H-pyrazolo[3,4-c]isoquinolin-5-yl)phenol]",≥ 7.00
18,"COc1cc2c(-c3ccc(O)c(F)c3)nc3[nH]nc(C)c3c2cc1OC [Example 42, 2-fluoro-4-[1-methyl-7,8-bis(methyloxy)-3H-pyrazolo[3,4-c]isoquinolin-5-yl]phenol]",6.00 to 7.00
19,"Cc1n[nH]c2nc(-c3ccc(O)c(Cl)c3)c3ccccc3c12 [Example 99, 2-chloro-4-(1-methyl-3H-pyrazolo[3,4-c]isoquinolin-5-yl)phenol]",≥ 7.00
20,"COc1cc(OC)c2c(-c3ccc(O)cc3)nc3[nH]nc(C)c3c2c1 [Example 31, 4-[1-methyl-6,8-bis(methyloxy)-3H-pyrazolo[3,4-c]isoquinolin-5-yl]phenol]",≥ 7.00
21,"COc1c(OCCN(C)CCN(C)C)cc(F)c2c(-c3ccc(O)c(Cl)c3)nc3[nH]nc(C)c3c12 [Example 227, 2-chloro-4-[8-({2-[[2-(dimethylamino)ethyl](methyl)amino]ethyl}oxy)-6-fluoro-1-methyl-9-(methyloxy)-3H-pyrazolo[3,4-c]isoquinolin-5-yl]phenol]",≥ 7.00
22,"CCN1CCN(CCCOc2cc(F)c3c(-c4ccc(O)c(Cl)c4)nc4[nH]nc(C)c4c3c2OC)CC1 [Example 200, 2-chloro-4-[8-{[3-(4-ethylpiperazin-1-yl)propyl]oxy}-6-fluoro-1-methyl-9-(methyloxy)-3H-pyrazolo[3,4-c]isoquinolin-5-yl]phenol]",≥ 7.00

# Other lines, results leading:
row,pIC50,Compound
1,≥ 7.00,"COc1cc2c(cc1OC(F)F)c(-c1ccc(O)c(Cl)c1)nc1[nH]nc(C)c12 [Example 142, 2-chloro-4-[7-[(difluoromethyl)oxy]-1-methyl-8-(methyloxy)-3H-pyrazolo[3,4-c]isoquinolin-5-yl]phenol]"
2,≥ 7.00,"COc1c(OCCN2C(C)CCCC2C)cc(F)c2c(-c3ccc(O)c(Cl)c3)nc3[nH]nc(C)c3c12 (centres unmarked) [Example 241, 2-chloro-4-[8-{[2-(2,6-dimethylpiperidin-1-yl)ethyl]oxy}-6-fluoro-1-methyl-9-(methyloxy)-3H-pyrazolo[3,4-c]isoquinolin-5-yl]phenol]"
3,≥ 7.00,"COc1cc2c(-c3ccc(O)c(Cl)c3)nc3[nH]nc(C)c3c2cc1OCC1CCN(C(C)=O)CC1 [Example 106, 4-[8-{[(1-acetylpiperidin-4-yl)methyl]oxy}-1-methyl-7-(methyloxy)-3H-pyrazolo[3,4-c]isoquinolin-5-yl]-2-chlorophenol]"
4,≥ 7.00,"COc1cc2c(-c3ccc(O)c(Cl)c3)nc3[nH]nc(C)c3c2cc1OCC1CCN(C(C)C)CC1 [Example 103, 2-chloro-4-[1-methyl-8-({[1-(1-methylethyl)piperidin-4-yl]methyl}oxy)-7-(methyloxy)-3H-pyrazolo[3,4-c]isoquinolin-5-yl]phenol]"
5,≥ 7.00,"COc1c(OCCN2C3CCC2CC(N)C3)cc(F)c2c(-c3ccc(O)c(Cl)c3)nc3[nH]nc(C)c3c12 (centres unmarked) [Example 217, 4-[8-{[2-(3-amino-8-azabicyclo[3.2.1]oct-8-yl)ethyl]oxy}-6-fluoro-1-methyl-9-(methyloxy)-3H-pyrazolo[3,4-c]isoquinolin-5-yl]-2-chlorophenol]"
6,≥ 7.00,"COc1cc2c(-c3cc(Br)c(O)cc3F)nc3[nH]nc(C)c3c2cc1OC [Example 122, 2-bromo-5-fluoro-4-[1-methyl-7,8-bis(methyloxy)-3H-pyrazolo[3,4-c]isoquinolin-5-yl]phenol]"
7,≥ 7.00,"COc1cc2c(c(-c3ccc(O)cc3)nc3[nH]nc(C)c32)c(OC)c1OC [Example 25, 4-[1-methyl-6,7,8-tris(methyloxy)-3H-pyrazolo[3,4-c]isoquinolin-5-yl]phenol]"
8,≥ 7.00,"COc1c(OCCCN2CCCC2)cc(F)c2c(-c3ccc(O)c(Cl)c3)nc3[nH]nc(C)c3c12 [Example 224, 2-chloro-4-{6-fluoro-1-methyl-9-(methyloxy)-8-[(3-pyrrolidin-1-ylpropyl)oxy]-3H-pyrazolo[3,4-c]isoquinolin-5-yl}phenol]"
9,≥ 7.00,"COc1cc2c(c(-c3ccc(O)cc3)nc3[nH]nc(Cc4ccccc4)c32)c(OC)c1OC [Example 24, 4-[6,7,8-tris(methyloxy)-1-(phenylmethyl)-3H-pyrazolo[3,4-c]isoquinolin-5-yl]phenol]"
10,≥ 7.00,"COc1c(OC[C@H](N)C(C)(C)C)cc(F)c2c(-c3ccc(O)c(Cl)c3)nc3[nH]nc(C)c3c12 [Example 213, 4-[8-{[(2R)-2-amino-3,3-dimethylbutyl]oxy}-6-fluoro-1-methyl-9-(methyloxy)-3H-pyrazolo[3,4-c]isoquinolin-5-yl]-2-chlorophenol]"
11,≥ 7.00,"COc1c(OCCN2CCC(N3CCCCC3)CC2)cc(F)c2c(-c3ccc(O)c(Cl)c3)nc3[nH]nc(C)c3c12 [Example 236, 4-[8-{[2-(1,4′-bipiperidin-1′-yl)ethyl]oxy}-6-fluoro-1-methyl-9-(methyloxy)-3H-pyrazolo[3,4-c]isoquinolin-5-yl]-2-chlorophenol]"
12,≥ 7.00,"COc1cc2c(-c3ccc(O)cc3)nc3[nH]nc(C)c3c2cc1OCC1CCN(C)CC1 [Example 65, 4-(1-methyl-7-(methyloxy)-8-{[(1-methylpiperidin-4-yl)methyl]oxy}-3H-pyrazolo[3,4-c]isoquinolin-5-yl)phenol]"
13,≥ 7.00,"COc1c(C)cc2c(-c3ccc(O)cc3)nc3[nH]nc(C)c3c2c1Cl [Example 94, 4-[9-chloro-1,7-dimethyl-8-(methyloxy)-3H-pyrazolo[3,4-c]isoquinolin-5-yl]phenol]"
